This note sets out measurements from ChEMBL document CHEMBL3217546, “The synthesis and receptor binding affinities of DDD-016, a novel, potential, atypical antipsychotic” (Medchemcomm, 2012).

Calls of active or inactive are those of the source. The rule behind the calls is not given here. Bounds are passed on as bounds.

Some targets named below: D(1A) dopamine receptor (Homo sapiens, UniProt P21728); D(3) dopamine receptor (Homo sapiens, UniProt P35462); D(1B) dopamine receptor (Homo sapiens, UniProt P21918).
Series [1] addresses 5-hydroxytryptamine receptor 1D (Homo sapiens, UniProt P28221).
Description: Binding affinity to serotonin 5-HT1D receptor (unknown origin) by PDSP assay
Series [2] addresses Muscarinic acetylcholine receptor M2 (Homo sapiens, UniProt P08172).
Description: Binding affinity to M2 receptor (unknown origin) by PDSP assay
Series [3] addresses 5-hydroxytryptamine receptor 1B (Homo sapiens, UniProt P28222).
Description: Binding affinity to serotonin 5-HT1B receptor (unknown origin) by PDSP assay
For another series, the target named is Histamine H2 receptor (Homo sapiens, UniProt P25021). Kind of series: Binding affinity to H2 histamine receptor (unknown origin) by PDSP assay.
For series [4], the target named is T1, 5-hydroxytryptamine receptor 2A (Homo sapiens, UniProt P28223). The series can be described thus: Agonist activity at 5-HT2A receptor (unknown origin) relative to serotonin. The settings on record: concentration not given here.
For series [5], the target named is T2, D(2) dopamine receptor (Homo sapiens, UniProt P14416). Kind of series: Agonist activity at dopamine D2 receptor (unknown origin) relative to serotonin. The settings on record: concentration not given here.
For series [6], the target named is 5-hydroxytryptamine receptor 6 (Homo sapiens, UniProt P50406).
Description: Binding affinity to serotonin 5-HT6 receptor (unknown origin) by PDSP assay
For series [7], the target named is Alpha-1A adrenergic receptor (Homo sapiens, UniProt P35348).
Description: Binding affinity to adrenergic alpha1A receptor (unknown origin) by PDSP assay
The subject of series [8] is Rattus norvegicus. The series can be described thus: Toxicity in po dosed rat assessed as change in renal parameter after 2 weeks relative to control. The format is organism-based. The settings on record: in vivo, 336 h.
Series [9] relates to Rattus norvegicus. Kind of series: Toxicity in po dosed rat assessed as abnormal metabolic changes after 2 weeks relative to control. The format is organism-based. The settings on record: in vivo, 336 h.
Series [10] deals with 5-hydroxytryptamine receptor 1A (Homo sapiens, UniProt P08908).
Description: Binding affinity to serotonin 5-HT1A receptor (unknown origin) by PDSP assay
Series [11] concerns the target Muscarinic acetylcholine receptor M3 (Homo sapiens, UniProt P20309).
Description: Binding affinity to M3 receptor (unknown origin) by PDSP assay
The target of series [12] is T2, D(2) dopamine receptor. Kind of series: Antagonist activity at dopamine D2 receptor (unknown origin) relative to ketanserin. The settings on record: concentration not given here.
Series [13] addresses T2, D(2) dopamine receptor.
Description: Binding affinity to dopamine D2 receptor (unknown origin) by PDSP assay
In series [14] the target is Muscarinic acetylcholine receptor M5 (Homo sapiens, UniProt P08912).
Description: Binding affinity to M5 receptor (unknown origin) by PDSP assay
The target in series [15] is 5-hydroxytryptamine receptor 2C (Homo sapiens, UniProt P28335).
Description: Binding affinity to serotonin 5-HT2C receptor (unknown origin) by PDSP assay
In series [16] the target is Muscarinic acetylcholine receptor M1 (Homo sapiens, UniProt P11229).
Description: Binding affinity to M1 receptor (unknown origin) by PDSP assay
Series [17] concerns the target 5-hydroxytryptamine receptor 7 (Homo sapiens, UniProt P34969).
Description: Binding affinity to serotonin 5-HT7 receptor (unknown origin) by PDSP assay
Series [18] has as its system Rattus norvegicus. Kind of series: Inhibition of pre-pulse in ip dosed rat. The format is functional, organism-based.
Series [19] concerns the target Alpha-1B adrenergic receptor (Homo sapiens, UniProt P35368).
Description: Binding affinity to adrenergic alpha1B receptor (unknown origin) by PDSP assay
The target in series [20] is 5-hydroxytryptamine receptor 1E (Homo sapiens, UniProt P28566).
Description: Binding affinity to serotonin 5-HT1E receptor (unknown origin) by PDSP assay
Series [21] addresses 5-hydroxytryptamine receptor 3A (Homo sapiens, UniProt P46098).
Description: Binding affinity to serotonin 5-HT3 receptor (unknown origin) by PDSP assay
Series [22] addresses T1, 5-hydroxytryptamine receptor 2A. Kind of series: Antagonist activity at 5-HT2A receptor (unknown origin) relative to ketanserin. The settings on record: concentration not given here.
For series [23], the target named is 5-hydroxytryptamine receptor 4 (Homo sapiens, UniProt Q13639). The series can be described thus: Binding affinity to serotonin 5-HT4 receptor (unknown origin) by PDSP assay.
Series [24] has as its system Rattus norvegicus. The series can be described thus: Toxicity in po dosed rat assessed as weight gain after 2 weeks relative to control. The format is organism-based. The settings on record: in vivo, 336 h.
The target of series [25] is Alpha-1D adrenergic receptor (Homo sapiens, UniProt P25100). The series can be described thus: Binding affinity to adrenergic alpha1D receptor (unknown origin) by PDSP assay.
Series [26] addresses T1, 5-hydroxytryptamine receptor 2A.
Description: Binding affinity to serotonin 5-HT2A receptor (unknown origin) by PDSP assay
The target in series [27] is Muscarinic acetylcholine receptor M4 (Homo sapiens, UniProt P08173).
Description: Binding affinity to M4 receptor (unknown origin) by PDSP assay
In series [28] the target is Alpha-2C adrenergic receptor (Homo sapiens, UniProt P18825).
Description: Binding affinity to adrenergic alpha2C receptor (unknown origin) by PDSP assay
Series [29] relates to Rattus norvegicus. Kind of series: Toxicity in po dosed rat assessed as elevation in liver enzyme level after 2 weeks relative to control. The format is organism-based. The settings on record: in vivo, 336 h.
The target of series [30] is Alpha-2A adrenergic receptor (Homo sapiens, UniProt P08913).
Description: Binding affinity to adrenergic alpha2A receptor (unknown origin) by PDSP assay
The target in series [31] is 5-hydroxytryptamine receptor 2B (Homo sapiens, UniProt P41595). The series can be described thus: Binding affinity to serotonin 5-HT2B receptor (unknown origin) by PDSP assay.
Series [32] addresses 5-hydroxytryptamine receptor 5A (Homo sapiens, UniProt P47898).
Description: Binding affinity to serotonin 5-HT5A receptor (unknown origin) by PDSP assay

T2 sequence (P14416 whole entry): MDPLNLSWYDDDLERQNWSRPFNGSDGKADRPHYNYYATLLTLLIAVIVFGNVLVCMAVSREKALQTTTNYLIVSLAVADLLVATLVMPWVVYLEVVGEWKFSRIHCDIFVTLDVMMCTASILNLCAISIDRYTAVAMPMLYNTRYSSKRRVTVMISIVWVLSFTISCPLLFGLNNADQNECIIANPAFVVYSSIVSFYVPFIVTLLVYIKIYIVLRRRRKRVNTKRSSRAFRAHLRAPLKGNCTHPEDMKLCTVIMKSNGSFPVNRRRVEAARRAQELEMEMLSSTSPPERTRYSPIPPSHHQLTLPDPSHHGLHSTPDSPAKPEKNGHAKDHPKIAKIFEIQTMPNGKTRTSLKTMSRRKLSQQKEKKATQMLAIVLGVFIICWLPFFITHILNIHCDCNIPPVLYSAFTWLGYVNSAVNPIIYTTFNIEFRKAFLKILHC
T1 sequence (P28223 whole entry): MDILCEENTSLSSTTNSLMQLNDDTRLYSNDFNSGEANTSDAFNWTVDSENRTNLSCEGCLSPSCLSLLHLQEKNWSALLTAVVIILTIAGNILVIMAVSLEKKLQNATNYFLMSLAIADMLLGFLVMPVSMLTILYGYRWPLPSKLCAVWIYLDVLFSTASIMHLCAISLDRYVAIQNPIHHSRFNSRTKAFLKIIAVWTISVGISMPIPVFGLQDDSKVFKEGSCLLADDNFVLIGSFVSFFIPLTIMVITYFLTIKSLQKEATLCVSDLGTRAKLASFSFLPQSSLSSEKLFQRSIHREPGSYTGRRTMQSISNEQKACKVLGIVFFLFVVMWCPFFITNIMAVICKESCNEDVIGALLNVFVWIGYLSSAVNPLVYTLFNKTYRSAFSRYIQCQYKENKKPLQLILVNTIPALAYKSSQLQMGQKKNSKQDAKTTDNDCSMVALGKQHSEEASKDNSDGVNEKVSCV
Sequence of 5-hydroxytryptamine receptor 5A (P47898 whole entry): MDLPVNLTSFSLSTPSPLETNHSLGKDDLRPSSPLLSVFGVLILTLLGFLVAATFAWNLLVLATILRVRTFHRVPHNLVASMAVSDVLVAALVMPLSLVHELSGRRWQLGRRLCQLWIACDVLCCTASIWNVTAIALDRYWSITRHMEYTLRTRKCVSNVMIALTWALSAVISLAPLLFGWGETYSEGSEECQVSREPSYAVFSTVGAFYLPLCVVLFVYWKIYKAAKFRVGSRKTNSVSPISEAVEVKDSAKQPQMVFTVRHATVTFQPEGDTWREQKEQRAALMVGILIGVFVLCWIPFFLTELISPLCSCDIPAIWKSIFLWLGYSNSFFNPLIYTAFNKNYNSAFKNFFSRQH
Sequence of 5-hydroxytryptamine receptor 1B (P28222 whole entry): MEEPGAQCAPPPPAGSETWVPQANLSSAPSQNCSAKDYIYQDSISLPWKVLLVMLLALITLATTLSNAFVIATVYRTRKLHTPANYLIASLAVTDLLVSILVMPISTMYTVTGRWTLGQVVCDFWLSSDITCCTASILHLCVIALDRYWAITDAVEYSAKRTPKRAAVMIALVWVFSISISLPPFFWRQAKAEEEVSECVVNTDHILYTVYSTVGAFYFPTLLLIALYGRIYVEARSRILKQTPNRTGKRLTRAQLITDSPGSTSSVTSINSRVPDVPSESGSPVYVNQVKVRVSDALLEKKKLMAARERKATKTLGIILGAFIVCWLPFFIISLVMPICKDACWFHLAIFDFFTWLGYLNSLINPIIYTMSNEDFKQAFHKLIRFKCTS
Sequence of 5-hydroxytryptamine receptor 1E (P28566 whole entry): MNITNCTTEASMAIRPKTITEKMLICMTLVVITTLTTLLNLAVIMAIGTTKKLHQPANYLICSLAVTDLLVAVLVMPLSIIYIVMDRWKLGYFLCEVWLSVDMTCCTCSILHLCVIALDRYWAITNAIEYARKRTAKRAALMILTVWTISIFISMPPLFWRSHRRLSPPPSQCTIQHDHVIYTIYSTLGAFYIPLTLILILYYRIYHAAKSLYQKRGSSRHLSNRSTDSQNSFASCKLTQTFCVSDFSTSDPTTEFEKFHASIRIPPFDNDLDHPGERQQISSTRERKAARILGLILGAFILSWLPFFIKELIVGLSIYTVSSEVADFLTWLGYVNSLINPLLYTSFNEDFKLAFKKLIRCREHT
Sequence of Alpha-1B adrenergic receptor (P35368 whole entry): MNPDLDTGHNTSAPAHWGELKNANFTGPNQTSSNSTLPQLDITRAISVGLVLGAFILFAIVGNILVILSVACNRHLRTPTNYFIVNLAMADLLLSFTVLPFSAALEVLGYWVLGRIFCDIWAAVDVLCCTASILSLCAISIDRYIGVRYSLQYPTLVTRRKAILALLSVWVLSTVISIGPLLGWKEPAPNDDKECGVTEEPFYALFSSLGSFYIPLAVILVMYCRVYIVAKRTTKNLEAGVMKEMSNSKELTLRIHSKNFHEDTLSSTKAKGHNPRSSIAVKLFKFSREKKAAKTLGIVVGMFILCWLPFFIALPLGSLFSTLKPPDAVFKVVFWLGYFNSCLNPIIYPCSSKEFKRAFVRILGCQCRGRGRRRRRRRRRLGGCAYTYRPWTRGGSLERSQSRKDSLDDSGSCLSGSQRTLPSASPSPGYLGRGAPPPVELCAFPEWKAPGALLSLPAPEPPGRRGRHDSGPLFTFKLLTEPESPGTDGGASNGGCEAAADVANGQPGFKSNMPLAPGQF
Sequence of D(1B) dopamine receptor (P21918 whole entry): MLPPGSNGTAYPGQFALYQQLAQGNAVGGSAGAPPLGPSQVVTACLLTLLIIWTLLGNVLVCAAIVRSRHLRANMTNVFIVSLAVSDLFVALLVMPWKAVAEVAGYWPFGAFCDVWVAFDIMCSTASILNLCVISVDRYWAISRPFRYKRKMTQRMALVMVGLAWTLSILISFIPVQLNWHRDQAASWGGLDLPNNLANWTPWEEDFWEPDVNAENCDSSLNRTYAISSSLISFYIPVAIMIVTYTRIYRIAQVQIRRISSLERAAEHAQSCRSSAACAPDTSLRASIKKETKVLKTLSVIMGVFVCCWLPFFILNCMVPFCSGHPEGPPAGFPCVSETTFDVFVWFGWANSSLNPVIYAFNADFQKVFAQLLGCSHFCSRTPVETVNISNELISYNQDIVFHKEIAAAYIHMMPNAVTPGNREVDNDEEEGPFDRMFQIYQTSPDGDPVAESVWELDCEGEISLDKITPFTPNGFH
Sequence of 5-hydroxytryptamine receptor 3A (P46098 whole entry): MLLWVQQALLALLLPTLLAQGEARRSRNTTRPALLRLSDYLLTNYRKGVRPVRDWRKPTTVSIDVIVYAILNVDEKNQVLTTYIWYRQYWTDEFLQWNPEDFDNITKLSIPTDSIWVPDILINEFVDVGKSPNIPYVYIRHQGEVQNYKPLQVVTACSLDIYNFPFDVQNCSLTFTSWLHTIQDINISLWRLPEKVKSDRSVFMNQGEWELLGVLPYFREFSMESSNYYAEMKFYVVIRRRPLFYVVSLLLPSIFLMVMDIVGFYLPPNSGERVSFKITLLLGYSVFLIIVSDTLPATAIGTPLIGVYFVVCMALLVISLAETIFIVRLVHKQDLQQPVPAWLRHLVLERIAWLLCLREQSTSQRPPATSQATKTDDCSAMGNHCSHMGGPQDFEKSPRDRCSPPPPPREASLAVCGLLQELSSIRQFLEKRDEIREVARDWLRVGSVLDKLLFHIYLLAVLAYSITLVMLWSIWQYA
Sequence of 5-hydroxytryptamine receptor 7 (P34969 whole entry): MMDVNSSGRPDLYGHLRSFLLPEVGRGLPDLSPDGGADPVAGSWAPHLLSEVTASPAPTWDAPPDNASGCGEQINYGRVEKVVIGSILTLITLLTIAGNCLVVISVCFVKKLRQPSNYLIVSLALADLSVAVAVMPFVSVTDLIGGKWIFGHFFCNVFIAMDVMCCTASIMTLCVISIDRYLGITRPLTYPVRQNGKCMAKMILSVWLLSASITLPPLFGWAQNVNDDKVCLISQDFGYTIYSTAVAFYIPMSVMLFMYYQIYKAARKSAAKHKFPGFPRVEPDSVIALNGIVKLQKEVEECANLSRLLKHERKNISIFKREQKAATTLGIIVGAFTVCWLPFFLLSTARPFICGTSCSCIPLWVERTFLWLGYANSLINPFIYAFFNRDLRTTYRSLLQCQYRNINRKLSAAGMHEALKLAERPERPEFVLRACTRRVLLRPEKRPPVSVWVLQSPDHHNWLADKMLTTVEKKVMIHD
Sequence of Alpha-2A adrenergic receptor (P08913 whole entry): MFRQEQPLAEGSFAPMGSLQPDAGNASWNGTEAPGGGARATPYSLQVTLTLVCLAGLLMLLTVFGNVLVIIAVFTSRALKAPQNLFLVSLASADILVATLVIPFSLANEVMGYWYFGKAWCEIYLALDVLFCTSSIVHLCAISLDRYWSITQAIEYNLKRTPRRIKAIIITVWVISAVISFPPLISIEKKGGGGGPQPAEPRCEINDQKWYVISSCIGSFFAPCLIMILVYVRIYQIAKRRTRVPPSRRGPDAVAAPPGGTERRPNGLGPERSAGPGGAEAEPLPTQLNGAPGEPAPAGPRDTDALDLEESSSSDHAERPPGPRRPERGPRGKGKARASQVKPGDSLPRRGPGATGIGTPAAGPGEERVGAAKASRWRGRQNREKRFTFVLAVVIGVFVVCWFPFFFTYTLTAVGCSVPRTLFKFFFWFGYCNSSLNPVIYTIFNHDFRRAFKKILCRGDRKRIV
Sequence of Muscarinic acetylcholine receptor M4 (P08173 whole entry): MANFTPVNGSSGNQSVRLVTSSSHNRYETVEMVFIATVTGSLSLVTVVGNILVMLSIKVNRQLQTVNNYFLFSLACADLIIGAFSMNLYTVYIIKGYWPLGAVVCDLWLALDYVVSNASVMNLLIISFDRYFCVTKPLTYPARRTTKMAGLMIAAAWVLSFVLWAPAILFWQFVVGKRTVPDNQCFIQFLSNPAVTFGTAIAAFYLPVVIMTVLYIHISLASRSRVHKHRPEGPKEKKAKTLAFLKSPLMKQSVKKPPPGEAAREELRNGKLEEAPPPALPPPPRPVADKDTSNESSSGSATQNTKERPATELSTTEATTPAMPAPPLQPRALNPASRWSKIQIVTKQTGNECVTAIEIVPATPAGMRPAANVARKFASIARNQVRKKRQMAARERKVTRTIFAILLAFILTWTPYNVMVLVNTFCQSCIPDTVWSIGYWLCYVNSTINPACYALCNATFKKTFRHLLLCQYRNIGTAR
Description for D(1A) dopamine receptor: Binding affinity to dopamine D1 receptor (unknown origin) by PDSP assay
Description for D(3) dopamine receptor: Binding affinity to dopamine D3 receptor (unknown origin) by PDSP assay

One may read the Ki as the equilibrium dissociation constant of an inhibitor or competing ligand from its target. Higher therefore signals weaker binding. Usually inhibition stands for the relative decrease from the control value, in per cent. For `CN1CCC2C(C1)c1cccc3c1N2c1ccccc1CS3` (stereo not drawn), the Ki in [1] was 63.1 nM; in series [2], more than 1000 nM; in [3], 316 nM; on Histamine H2 receptor, 79.4 nM; in series [6], 15.8 nM; in series [7], 501 nM. In addition, the inhibition constant Ki was 25.1 nM on D(1A) dopamine receptor; 39.8 nM in series [10]; more than 1000 nM in [11]; 126 nM at D(2) dopamine receptor [13]; 794 nM in series [14]; 7.94 nM in [15]. Further, the Ki in [16] was more than 1000 nM; in series [17], 79.4 nM; in series [19], more than 1000 nM; in [20], 2510 nM; in [21], 631 nM; in [23], more than 1000 nM. Further, the inhibition constant Ki was 794 nM in series [25]; 2 nM in series [26]; more than 1000 nM in series [27]; 31.6 nM in [28]; 31.6 nM at D(3) dopamine receptor; 63.1 nM in series [30]. Further, the affinity in [31], expressed as Ki, was 5.01 nM. Further, the inhibition in series [4] was determined as 4%; at D(2) dopamine receptor [5], 0%; against D(2) dopamine receptor [12], 95%; in series [22], 101%. Further, the Activity entry in the series with Rattus norvegicus [8], in the series with Rattus norvegicus [9], in the series on Rattus norvegicus [24] and with Rattus norvegicus [29] was “Non-toxic” in each case. In the series on Rattus norvegicus [18], the inhibition result is “Active”.

As to `Cc1cc2c(s1)Nc1ccccc1N=C2N1CCN(C)CC1` [OLANZAPINE], the figures for the inhibition constant (Ki) (in series [32]; in series [21]; on D(1B) dopamine receptor) were more than 1000 nM, 1000 nM and 100 nM, respectively.

`CN1CCN(C2=Nc3cc(Cl)ccc3Nc3ccccc32)CC1` [CLOZAPINE] registered a Ki in series [32] of more than 1000 nM.

For the compound `OCCOCCN1CCN(C2=Nc3ccccc3Sc3ccccc32)CC1` [QUETIAPINE], the inhibition constant Ki in [3] was more than 1000 nM; in [32], more than 1000 nM; in [19] it was 100 nM; in series [20] it was more than 1000 nM; on D(1B) dopamine receptor it was more than 1000 nM.
